Data taken from the CheMixHub viscosity set.
± gives the uncertainty stated by the source.

Experiment: xn = mol fraction of the nth substance listed

`CCCCCCCCN` + CCCCN(CCCC)CCCC gave a viscosity (303.15 K, 101 kPa, x2 = 0.1005) of 1.149 ± 0.0095 mPa·s, a viscosity (303.15 K, 101 kPa, x2 = 0.202) of 1.138 ± 0.0094 mPa·s and a viscosity (303.15 K, 101 kPa, x2 = 0.3961) of 1.126 ± 0.0093 mPa·s. The viscosity (303.15 K, 101 kPa, x2 = 0.5022) was 1.125 ± 0.0093 mPa·s, the viscosity (303.15 K, 101 kPa, x2 = 0.5949) was 1.127 ± 0.0093 mPa·s and the viscosity (303.15 K, 101 kPa, x2 = 0.7991) was 1.14 ± 0.0094 mPa·s. For the same molecule, the viscosity (303.15 K, 101 kPa, x2 = 0.8964) was 1.151 ± 0.0095 mPa·s, the viscosity (313.15 K, 101 kPa, x2 = 0.1005) was 0.9719 ± 0.0084 mPa·s and the viscosity (313.15 K, 101 kPa, x2 = 0.202) was 0.9612 ± 0.0083 mPa·s. The viscosity (313.15 K, 101 kPa, x2 = 0.3961) was 0.9507 ± 0.0083 mPa·s, the viscosity (313.15 K, 101 kPa, x2 = 0.5022) was 0.9506 ± 0.0083 mPa·s and the viscosity (313.15 K, 101 kPa, x2 = 0.5949) was 0.9532 ± 0.0083 mPa·s. For the same molecule, the viscosity (313.15 K, 101 kPa, x2 = 0.7991) was 0.97 ± 0.0084 mPa·s and the viscosity (313.15 K, 101 kPa, x2 = 0.8964) was 0.9821 ± 0.0084 mPa·s.

`Cc1ccc(C)cc1` + CCCCO showed a viscosity (298.15 K, 101.33 kPa, x2 = 0.1504) of 0.636 ± 0.005 mPa·s, a viscosity (298.15 K, 101.33 kPa, x2 = 0.2649) of 0.692 ± 0.006 mPa·s and a viscosity (298.15 K, 101.33 kPa, x2 = 0.3971) of 0.797 ± 0.006 mPa·s. It also gave a viscosity (298.15 K, 101.33 kPa, x2 = 0.5009) of 0.914 ± 0.007 mPa·s, a viscosity (298.15 K, 101.33 kPa, x2 = 0.585) of 1.047 ± 0.008 mPa·s and a viscosity (298.15 K, 101.33 kPa, x2 = 0.6932) of 1.275 ± 0.01 mPa·s. It also gave a viscosity (298.15 K, 101.33 kPa, x2 = 0.7688) of 1.493 ± 0.012 mPa·s, a viscosity (308.15 K, 101 kPa, x2 = 0.0495) of 0.551 ± 0.012 mPa·s and a viscosity (308.15 K, 101 kPa, x2 = 0.1136) of 0.553 ± 0.012 mPa·s. For the same molecule, the viscosity (308.15 K, 101 kPa, x2 = 0.206) was 0.562 ± 0.012 mPa·s, the viscosity (308.15 K, 101 kPa, x2 = 0.3224) was 0.592 ± 0.012 mPa·s and the viscosity (308.15 K, 101 kPa, x2 = 0.4051) was 0.647 ± 0.014 mPa·s. The viscosity (308.15 K, 101 kPa, x2 = 0.5098) was 0.724 ± 0.015 mPa·s, the viscosity (308.15 K, 101 kPa, x2 = 0.6322) was 0.796 ± 0.017 mPa·s and the viscosity (308.15 K, 101 kPa, x2 = 0.7241) was 0.937 ± 0.02 mPa·s. It also gave a viscosity (308.15 K, 101 kPa, x2 = 0.8216) of 1.118 ± 0.023 mPa·s, a viscosity (308.15 K, 101 kPa, x2 = 0.9035) of 1.327 ± 0.028 mPa·s and a viscosity (308.15 K, 101 kPa, x2 = 0.9621) of 1.619 ± 0.034 mPa·s.

`O=C(O)CCC(=O)O` + CCCCO gave a viscosity (308.15 K, 101 kPa, x1 = 0.0162) of 2.167 ± 0.057 mPa·s, a viscosity (313.15 K, 101 kPa, x1 = 0.0162) of 1.91 ± 0.05 mPa·s and a viscosity (318.15 K, 101 kPa, x1 = 0.0162) of 1.704 ± 0.045 mPa·s. It also gave a viscosity (318.15 K, 101 kPa, x1 = 0.017) of 1.704 ± 0.015 mPa·s, a viscosity (318.15 K, 101 kPa, x1 = 0.035) of 1.848 ± 0.016 mPa·s and a viscosity (318.15 K, 101 kPa, x1 = 0.0435) of 1.943 ± 0.051 mPa·s. The viscosity (318.15 K, 101 kPa, x1 = 0.047) was 1.943 ± 0.017 mPa·s, the viscosity (323.15 K, 101 kPa, x1 = 0.0162) was 1.51 ± 0.04 mPa·s and the viscosity (323.15 K, 101 kPa, x1 = 0.0435) was 1.726 ± 0.046 mPa·s.

In the case of `O=C(O)c1ccccc1C(=O)O` + CCCCO, the viscosity (308.15 K, 101.33 kPa, x1 = 0.021) is reported as 2.302 ± 0.061 mPa·s, the viscosity (313.15 K, 101.33 kPa, x1 = 0.021) is reported as 2.033 ± 0.054 mPa·s and the viscosity (313.15 K, 101.33 kPa, x1 = 0.032) is reported as 2.18 ± 0.058 mPa·s. It also gave a viscosity (318.15 K, 101 kPa, x1 = 0.021) of 1.806 ± 0.016 mPa·s, a viscosity (318.15 K, 101 kPa, x1 = 0.032) of 1.928 ± 0.017 mPa·s and a viscosity (318.15 K, 101 kPa, x1 = 0.039) of 1.985 ± 0.017 mPa·s. The viscosity (318.15 K, 101.33 kPa, x1 = 0.021) was 1.806 ± 0.048 mPa·s, the viscosity (318.15 K, 101.33 kPa, x1 = 0.032) was 1.928 ± 0.051 mPa·s and the viscosity (323.15 K, 101 kPa, x1 = 0.021) was 1.604 ± 0.015 mPa·s. For the same molecule, the viscosity (323.15 K, 101 kPa, x1 = 0.032) was 1.712 ± 0.016 mPa·s, the viscosity (323.15 K, 101 kPa, x1 = 0.039) was 1.78 ± 0.016 mPa·s and the viscosity (323.15 K, 101.33 kPa, x1 = 0.021) was 1.604 ± 0.043 mPa·s. For the same molecule, the viscosity (323.15 K, 101.33 kPa, x1 = 0.032) was 1.712 ± 0.045 mPa·s.

With `O=Cc1ccccc1` + CCCCO the viscosity (293.15 K, 101.33 kPa, x1 = 0.1021) was 2.662 ± 0.29 mPa·s, the viscosity (293.15 K, 101.33 kPa, x1 = 0.2004) was 2.48 ± 0.28 mPa·s and the viscosity (293.15 K, 101.33 kPa, x1 = 0.3089) was 2.294 ± 0.26 mPa·s. For the same molecule, the viscosity (293.15 K, 101.33 kPa, x1 = 0.4057) was 2.14 ± 0.25 mPa·s, the viscosity (293.15 K, 101.33 kPa, x1 = 0.4992) was 2.001 ± 0.24 mPa·s and the viscosity (293.15 K, 101.33 kPa, x1 = 0.6014) was 1.86 ± 0.23 mPa·s. It also gave a viscosity (293.15 K, 101.33 kPa, x1 = 0.6982) of 1.735 ± 0.22 mPa·s, a viscosity (293.15 K, 101.33 kPa, x1 = 0.8044) of 1.608 ± 0.21 mPa·s and a viscosity (293.15 K, 101.33 kPa, x1 = 0.9027) of 1.498 ± 0.2 mPa·s. It also gave a viscosity (303.15 K, 101.33 kPa, x1 = 0.1021) of 2.143 ± 0.25 mPa·s, a viscosity (303.15 K, 101.33 kPa, x1 = 0.2004) of 2.025 ± 0.24 mPa·s and a viscosity (303.15 K, 101.33 kPa, x1 = 0.3089) of 1.903 ± 0.23 mPa·s. The viscosity (303.15 K, 101.33 kPa, x1 = 0.4057) was 1.799 ± 0.22 mPa·s, the viscosity (303.15 K, 101.33 kPa, x1 = 0.4992) was 1.705 ± 0.22 mPa·s and the viscosity (303.15 K, 101.33 kPa, x1 = 0.6014) was 1.608 ± 0.21 mPa·s. The viscosity (303.15 K, 101.33 kPa, x1 = 0.6982) was 1.521 ± 0.2 mPa·s, the viscosity (303.15 K, 101.33 kPa, x1 = 0.8044) was 1.43 ± 0.2 mPa·s and the viscosity (303.15 K, 101.33 kPa, x1 = 0.9027) was 1.352 ± 0.19 mPa·s. The viscosity (313.15 K, 101.33 kPa, x1 = 0.1021) was 1.62 ± 0.21 mPa·s, the viscosity (313.15 K, 101.33 kPa, x1 = 0.2004) was 1.563 ± 0.2 mPa·s and the viscosity (313.15 K, 101.33 kPa, x1 = 0.3089) was 1.503 ± 0.2 mPa·s. It also gave a viscosity (313.15 K, 101.33 kPa, x1 = 0.4057) of 1.451 ± 0.2 mPa·s, a viscosity (313.15 K, 101.33 kPa, x1 = 0.4992) of 1.403 ± 0.19 mPa·s and a viscosity (313.15 K, 101.33 kPa, x1 = 0.6014) of 1.352 ± 0.19 mPa·s. It also gave a viscosity (313.15 K, 101.33 kPa, x1 = 0.6982) of 1.305 ± 0.18 mPa·s, a viscosity (313.15 K, 101.33 kPa, x1 = 0.8044) of 1.256 ± 0.18 mPa·s and a viscosity (313.15 K, 101.33 kPa, x1 = 0.9027) of 1.212 ± 0.18 mPa·s. It also gave a viscosity (323.15 K, 101.33 kPa, x1 = 0.1021) of 1.088 ± 0.17 mPa·s, a viscosity (323.15 K, 101.33 kPa, x1 = 0.2004) of 1.086 ± 0.17 mPa·s and a viscosity (323.15 K, 101.33 kPa, x1 = 0.3089) of 1.084 ± 0.17 mPa·s. For the same molecule, the viscosity (323.15 K, 101.33 kPa, x1 = 0.4057) was 1.082 ± 0.17 mPa·s, the viscosity (323.15 K, 101.33 kPa, x1 = 0.4992) was 1.081 ± 0.17 mPa·s and the viscosity (323.15 K, 101.33 kPa, x1 = 0.6014) was 1.079 ± 0.17 mPa·s. For the same molecule, the viscosity (323.15 K, 101.33 kPa, x1 = 0.6982) was 1.077 ± 0.17 mPa·s, the viscosity (323.15 K, 101.33 kPa, x1 = 0.8044) was 1.075 ± 0.17 mPa·s and the viscosity (323.15 K, 101.33 kPa, x1 = 0.9027) was 1.074 ± 0.17 mPa·s.
